# In patent US9480679B2, “Methods for treating malaria, tuberculosis and MAC diseases” (priority 2009, dated 2016):
# Where “and” joins values, the source holds several entries; their conditions need not be identical. Identical values can stand only once. Like-named read-outs stand apart in the source and are kept apart here. Marks after values point to notes of the source that are not given here.
# Key:
# [1] = test system: clinical XDR strains of M. tuberculosis; assay: microbe, parasite or virus in culture; assay type: cell-based; details: Mycobacterium tuberculosis
# M. avium LPR ATCC 49601 = assay: Murine model of M. avium infection, CFU in spleens and lungs; assay type: in vivo; details: mice; for reduction in growth of MAC LPR in the spleens and lungs compared to the late controls: P<0.05
# [2] = test system: replicating M. tuberculosis; assay: Aero RLU (Relative Light Units under aerobic conditions), replicating culture; assay type: cell-based; details: two experiments
# [3] = test system: P. falciparum lines Dd2 and 7G8 and azithromycin-resistant lines; assay: Fidock lab 96 hours assay on P. falciparum lines; assay type: cell-based
# Text: EXAMPLE. CEM101 is active when tested against Azi resistant strain (Fidock).
# [4] = test system: luciferase expressing P. berghei liver stage parasites; assay: Liver stage activity by in vivo imaging; details: mice, PO dosing at 40 mg/kg/d×3 days
# Procedure: Efficacy was measured by number of mice with delayed parasitemia and mice that were malaria free at day 31. Antimalarial liver stage activity was assessed in mice infected with luciferase expressing P. berghei parasites using an in vivo imaging system.
# [5] = test system: P. berghei ANKA sporozoites; assay: Causal prophylactic P. berghei sporozoite mouse model; assay type: in vivo
# Procedure: EXAMPLE. CEM-101 activity as prophylactic. Mice inoculated IV with 0.1 ml, 100,000 P. berghei ANKA sporozoites from mosquitoes. Drug administered Day −1, 0 and 1, Once daily for 3 days.
# [6] = Systemic toxicity in mice with SC or PO dosing; assay type: in vivo; details: SC or PO dosing as high as 160 mg/kg/d×3 days
# Procedure: For blood stage infections, the minimum curative SC dose was 40 mg/kg/d×3 days, while 80 mg/kg/d×3 was the minimum active dose for PO route. In the P. berghei causal mouse model, CEM-101 was curative at 40 mg/kg/d×3 days with SC or PO dosing.
# [7] = test system: non-replicating M. tuberculosis; assay: Low Oxygen Recovery Assay (LORA), non-replicating culture; assay type: cell-based; details: non-replicating culture (anaerobic); two experiments
# [8] = test system: MTb growing inside macrophages; assay: MTb inside infected macrophages, ATP readout; assay type: cell-based, M. tuberculosis; details: 1 μg/mL
# M. avium complex = assay: Broth dilution MIC versus M. avium complex isolates; assay type: cell-based, Mycobacterium avium; details: Mycobacterium avium, read-out: MIC
# M. avium = M. avium in vitro activity summary (MIC90, MBC); assay type: cell-based
# [9] = test system: replicating M. tuberculosis; assay: Microplate Alamar Blue Assay (MABA), replicating culture; assay type: cell-based; details: two experiments
# P. falciparum NF54 = assay: In vitro P. falciparum 120 hour assay (96+24); assay type: cell-based; details: Plasmodium falciparum, NF54
# Procedure: EXAMPLE. In vitro and in vivo activity against different species of Plasmodium parasites. CEM-101 was tested against intra-erythrocytic forms of P. falciparum derived from asynchronous cultures of the strain […]. Parasite growth over 120 h was measured by the incorporation of radiolabelled [^3H]hypoxanthine (in hypoxanthine free culture medium) added after 96 h of drug incubation and 24 h prior to the termination of the test. CEM-101 was followed for 120 h. CEM-101 has delayed activity when compared to other agents.
# In vitro P. falciparum data for CEM-101 in the 120 h Assay (96+24)
# [10] = assay type: in vitro ADME; details: 24 h
# Procedure: EXAMPLE. Intracellular activity of CEM-101. […] After 24 hours, the intracellular concentration of CEM-101 was more than 2-fold higher than any of azithromycin, clarithromycin, and telithromycin, in decreasing order of ability for intracellular accumulation. CEM-101 intracellular accumulation was dose dependent.
compound,measurement,setting,value
"CC[C@H]1OC(=O)[C@@](C)(F)C(=O)[C@H](C)[C@@H](O[C@@H]2O[C@H](C)C[C@H](N(C)C)[C@H]2O)[C@](C)(OC)C[C@@H](C)C(=O)[C@H](C)[C@H]2N(CCCCn3cc(-c4cccc(N)c4)nn3)C(=O)O[C@]12C [CEM-101, solithromycin]",MIC,"[1]; 168 h, strain OB005, 1 week",3.12 µg/mL
same,MIC,"[1]; 168 h, strain OB031, 1 week",0.049 µg/mL
same,MIC,"[1]; 168 h, strain OB076a, 1 week",0.049 µg/mL
same,MIC,"[1]; 168 h, strain OB076b, 1 week",0.049 µg/mL
same,MIC,"[1]; 168 h, strain OB082, 1 week",0.049 µg/mL
same,MIC,"[1]; 336 h, strain OB005, 2 weeks",12.5 µg/mL
same,MIC,"[1]; 336 h, strain OB019, 2 weeks",1.56 µg/mL
same,MIC,"[1]; 336 h, strain OB031, 2 weeks",0.78 to 1.56 µg/mL
same,MIC,"[1]; 336 h, strain OB062, 2 weeks",0.39 to 0.78 µg/mL
same,MIC,"[1]; 336 h, strain OB076a, 2 weeks",0.098 µg/mL
same,MIC,"[1]; 336 h, strain OB076b, 2 weeks",0.049 µg/mL
same,MIC,"[1]; 336 h, strain OB081, 2 weeks",12.5 µg/mL
same,MIC,"[1]; 336 h, strain OB082, 2 weeks",0.098 µg/mL
same,MIC,"[1]; strain OB031, after a week (as the cell number increased)",0.78 to 1.56 µg/mL
same,MIC,"[1]; strain OB031, initially",0.049 µg/mL
same,"reduction in growth of MAC LPR in the spleens and lungs compared to the late controls, significant or not","M. avium LPR ATCC 49601; 25 mg/kg orally 5 days/week for 4 weeks, P>0.05",not
same,reduction in growth of MAC LPR in the spleens and lungs compared to the late controls,M. avium LPR ATCC 49601; 50 mg/kg orally 5 days/week for 4 weeks,significant
same,reduction in growth of MAC LPR in the spleens and lungs compared to the late controls,M. avium LPR ATCC 49601; 100 mg/kg orally 5 days/week for 4 weeks,significant
same,reduction in growth of MAC LPR in the spleens and lungs compared to the late controls,M. avium LPR ATCC 49601; 200 mg/kg orally 5 days/week for 4 weeks,significant
same,reduction in CFU of MAC LPR in spleens and lungs compared to the CLA 200 mg/kg group,"M. avium LPR ATCC 49601; 200 mg/kg, difference not statistically significant (P>0.05)",greater
same,Aero RLU,[2],7.19 µM and 6.95 µM
same,IC50,"[3]; Plasmodium falciparum, 96 h, line 7G8 (multidrug resistant), 96 hours, read-out: Mean IC50",18.5 nM
same,IC50,"[3]; Plasmodium falciparum, 96 h, line AZR 7G8-R1, 96 hours, read-out: Mean IC50",80.2 nM
same,IC50,"[3]; Plasmodium falciparum, 96 h, line AZR Dd2-R2, 96 hours, runs 1-3, read-out: IC50",73.2 nM
same,IC50,"[3]; Plasmodium falciparum, 96 h, line AZR Dd2-R2, 96 hours, read-out: Mean IC50",69.1 nM
same,IC50,"[3]; Plasmodium falciparum, 96 h, line Dd2 (multidrug resistant), 96 hours, read-out: Mean IC50",38.6 nM
same,IC50,"[3]; line AZR Dd2-R2, 96 hours, runs 1-3, read-out: IC50",64.5 nM and 69.7 nM
same,antimalarial activity against liver stage parasites by in vivo imaging,[4],No demonstrable antimalarial activity
same,mice remaining parasite free,[5]; 20 mg/kg/d×3 days,3/5
same,outcome in the P. berghei causal mouse model,[5]; 40 mg/kg/d×3 days with SC or PO dosing,curative
same,prophylactic activity,"[5]; causal mouse malaria models, PO dosing at 40 mg/kg/d×3 days",100%
same,blood stage infection after prophylactic dosing,[5]; mice dosed as low as 40 mg/kg/d×3 days,no blood stage infection was detected
same,Activity,"[5]; mice, PO, dose 80, once daily Day -1, 0 and 1, (3 mice)",Complete curative
same,Activity,"[5]; mice, PO, dose 120, once daily Day -1, 0 and 1, (3 mice)",Complete curative
same,Activity,"[5]; mice, PO, dose 160, once daily Day -1, 0 and 1",Complete curative
same,Activity,"[5]; mice, SC, dose 40, once daily Day -1, 0 and 1",Complete curative
same,Activity,"[5]; mice, SC, dose 80, once daily Day -1, 0 and 1",Complete curative
same,Activity,"[5]; mice, SC, dose 120, once daily Day -1, 0 and 1",Complete curative
same,Activity,"[5]; mice, SC, dose 160, once daily Day -1, 0 and 1",Complete curative
same,minimum active dose,"[5]; mice, causal prophylactic model",20 mg/kg/d×3 days
same,systemic toxicity,[6],No systemic toxicity
same,LORA,[7],10.43 µM and 7.55 µM
same,decrease in ATP of MTb released from infected treated cells,[8],10 fold
same,MIC,"M. avium complex; isolate MAC 101, clarithromycin susceptible",0.25 µg/mL
same,MIC,"M. avium complex; isolate MAC 103, clarithromycin resistant",8 µg/mL
same,MIC,"M. avium complex; isolate MAC 108, clarithromycin resistant",8 µg/mL
same,MIC,"M. avium complex; isolate MAC 110, clarithromycin resistant",8 µg/mL
same,MIC,"M. avium complex; isolate MAC 216, clarithromycin resistant",8 µg/mL
same,MIC,"M. avium complex; isolate MAC 224, clarithromycin resistant",8 µg/mL
same,MIC,"M. avium complex; isolate MAC 309, clarithromycin resistant",8 µg/mL
same,MIC,"M. avium complex; isolate MAC 320, clarithromycin resistant",8 µg/mL
same,MIC,"M. avium complex; isolate MAC 621, clarithromycin resistant",16 µg/mL
same,MIC,"M. avium complex; isolate MAC 623, clarithromycin resistant",16 µg/mL
same,MIC,"M. avium complex; isolate MAC 625, clarithromycin resistant",8 µg/mL
same,MIC,"M. avium complex; isolate MAC 643, clarithromycin resistant",8 µg/mL
same,MIC,"M. avium complex; isolate MAC 1408, clarithromycin susceptible",0.25 µg/mL
same,MIC,"M. avium complex; isolate MAC 3404.4, clarithromycin susceptible",0.125 µg/mL
same,MIC,"M. avium complex; isolate MAC 9141, clarithromycin susceptible",1 µg/mL
same,MIC,"M. avium complex; isolate MAC FAR, clarithromycin susceptible",0.125 µg/mL
same,MIC,"M. avium complex; isolate MAC GRL, clarithromycin susceptible",8 µg/mL
same,MIC,"M. avium complex; isolate MAC KAL, clarithromycin susceptible",16 µg/mL
same,MIC,"M. avium complex; isolate MAC KZL, clarithromycin susceptible",8 µg/mL
same,MIC,M. avium complex; isolate MAC LPR (control strain),8 µg/mL
same,MIC,"M. avium complex; isolate MAC Pry, clarithromycin resistant",8 µg/mL
same,MIC,"M. avium complex; isolate MAC SMT, clarithromycin susceptible",0.125 µg/mL
same,MIC,"M. avium complex; isolate MAC TEL, clarithromycin susceptible",8 µg/mL
same,MIC,"M. avium complex; isolate MAC TRY, clarithromycin susceptible",8 µg/mL
same,MBC,"M. avium; Mycobacterium avium, all strains tested, read-out: MBC",2 µg/mL
same,MIC,"M. avium; Mycobacterium avium, susceptible phenotype, N=24, read-out: MIC",1 µg/mL
same,MBC (range),M. avium; N=30,2 (2) μg/mL
same,MIC90 (range),M. avium; N=30,1 (1) μg/mL
same,MBC,"M. avium; resistant phenotype, MBCs calculated for 4 of the resistant strains",2^a μg/mL
same,MIC,"M. avium; resistant phenotype, N=6",1 µg/mL
same,MBC,"M. avium; susceptible phenotype, N=24",2 µg/mL
same,MIC,[9]; Mycobacterium tuberculosis,9.23 µM
same,MIC,[9],9.17 µM
same,IC50,"P. falciparum NF54; 120 h assay (96+24), read-out: IC50 NF54",0.0024 µg/mL
same,IC50,"P. falciparum NF54; 120 hour assay (96+24), read-out: IC50 NF54 Test 1",< 0.156 µg/mL
same,IC50,"P. falciparum NF54; 120 hour assay (96+24), read-out: IC50 NF54 Test 2",< 0.015 µg/mL
same,IC50,"P. falciparum NF54; 120 hour assay (96+24), read-out: IC50 NF54 Test 3",0.0024 µg/mL
same,"intracellular concentration relative to azithromycin, clarithromycin and telithromycin",[10],more than 2 fold
